Target: MAPK14 (human) (UniProt Q16539)
Experiment: Assessment of MAPK14 Kinase Activity

MAPK14 (human), sequence (Q16539 whole entry, looked up): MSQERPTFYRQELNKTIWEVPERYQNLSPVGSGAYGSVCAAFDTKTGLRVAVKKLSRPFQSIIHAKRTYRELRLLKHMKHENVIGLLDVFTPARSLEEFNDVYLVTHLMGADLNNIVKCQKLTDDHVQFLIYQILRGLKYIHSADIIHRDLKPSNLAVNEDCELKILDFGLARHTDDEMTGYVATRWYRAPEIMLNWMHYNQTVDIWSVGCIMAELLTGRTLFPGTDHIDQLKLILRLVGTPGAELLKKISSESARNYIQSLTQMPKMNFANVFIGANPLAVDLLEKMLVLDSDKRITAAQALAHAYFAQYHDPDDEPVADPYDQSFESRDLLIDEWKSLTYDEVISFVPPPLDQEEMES

Compound	IC50 [nM]
CCc1c(OCc2ccccc2CNC(=O)Nc2cc(C(C)(C)C)nn2-c2cccc(F)c2)ncn(Cc2ccccc2)c1=O	11
Cc1cc(OCc2ccccc2CNC(=O)Nc2cc(C(C)(C)C)nn2-c2ccc(Cl)c(O)c2)c(Cl)c(=O)n1Cc1ccc(C(=O)CN)cc1	2.4
COC(=O)c1ccc(Cn2c(C)cc(OCc3ccccc3CNC(=O)Nc3cc(C(C)(C)C)nn3-c3ccc(C)cc3)c(Br)c2=O)cc1	16.9
Cc1ccc(C(=O)OCCO)cc1-n1c(C)cc(OCc2ccc(F)cc2CNC(=O)Nc2cc(C(C)(C)C)nn2-c2cccc(OCCO)c2)c(Cl)c1=O	1.7
Cc1cc(OCc2ccccc2CNC(=O)Nc2cc(C3CC3)nn2-c2ccccc2)c(Br)c(=O)n1Cc1ccccc1	176
Cc1ccc(C(=O)N[C@H](C)C(N)=O)cc1-n1c(C)cc(OCc2ccccc2CNC(=O)Nc2cc(C(C)(C)C)nn2-c2ccc(O)c(Cl)c2)c(Cl)c1=O	2.5
Cc1ccc(C(=O)OCCN(C)C)cc1-n1c(C)cc(OCc2ccc(F)cc2CNC(=O)Nc2cc(C(C)(C)C)nn2-c2cccc(OCCO)c2)c(Cl)c1=O	1.4
Cc1cc(OCc2ccccc2CNC(=O)Nc2cc(C(C)(C)C)nn2-c2ccc(O)c(Cl)c2)c(Cl)c(=O)n1Cc1cccc(C(O)C(N)=O)c1 (stereo unspecified)	8.9
COC(=O)c1ccc(C)c(-n2c(SC)nc(OCc3ccc(F)cc3CNC(=O)Nc3cc(C(C)(C)C)nn3-c3ccc(C)cc3)cc2=O)c1	9.55
COc1ccccc1Cn1c(C)cc(OCc2ccccc2CNC(=O)Nc2cc(C(C)CSC)nn2-c2cccc(O)c2)c(Cl)c1=O (stereo unspecified)	20.5
Cc1cc(OCc2ccccc2CNC(=O)Nc2cc(C(C)(C)C)nn2-c2ccc(O)c(Cl)c2)c(Cl)c(=O)n1Cc1ccc(C(=O)CN)cc1	3.6
